Measurements: patent US12011444B2, “N-substituted indole derivatives as PGE2 receptor modulators” (Idorsia Pharmaceuticals Ltd, priority 2015, dated 2024)

What was measured:
[1] = molecular target: EP4 (Homo sapiens (Human), UniProt P35408); assay: hEP4 cAMP assay (BT549 breast cancer cells, HTRF cAMP); type: cell-based; conditions: antagonistic activity; mean values where measured multiple times
Description: Plate is pre-incubated 45 minutes at room temperature. Subsequently, 2.5 microliters of PGE2 (final conc. 6 nM) are transferred into the assay plate. Plate is incubated 30 minutes at room temperature.

[2] = molecular target: EP2 (Homo sapiens (Human), UniProt P43116);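 further: antagonism of PGE2-stimulated cAMP accumulation in SF295 human glioblastoma cells with endogenous EP2, cAMP read by HTRF, expressed relative to DMSO control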
Sequence of EP2 (P43116 whole entry): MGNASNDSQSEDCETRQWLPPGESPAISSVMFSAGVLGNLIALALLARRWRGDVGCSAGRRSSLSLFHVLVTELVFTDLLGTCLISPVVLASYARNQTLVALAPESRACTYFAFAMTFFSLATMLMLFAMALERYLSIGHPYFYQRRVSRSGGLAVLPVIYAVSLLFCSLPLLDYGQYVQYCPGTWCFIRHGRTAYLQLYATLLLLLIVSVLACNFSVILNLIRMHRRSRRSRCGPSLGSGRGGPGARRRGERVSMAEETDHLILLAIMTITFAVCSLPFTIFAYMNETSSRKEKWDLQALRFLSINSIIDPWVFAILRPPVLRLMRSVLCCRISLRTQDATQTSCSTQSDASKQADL
Description: Human tumor cell lines expressing endogenously either EP4 or EP2 are used and cAMP accumulation in cells upon PGE2 stimulation is monitored. SF295 glioblastoma cells express high endogenous EP2 and no EP4, whereas BT549 breast cancer cells, express high endogenous EP4 levels and very low EP2 levels.
As a detection method for cAMP the HTRF (homogeneous time resolved fluorescence) Cisbio kit (HTRF cAMP dynamic 2 kit 20′000 tests Cisbio Cat. #62AM4PEC) was used, which is based on a competitive immunoassay using a Cryptate-labeled anti-cAMP antibody and d2-labeled cAMP. Native cAMP produced by cells or unlabeled cAMP (for the standard curve) compete with exogenously added d2-labeled cAMP (acceptor) for binding to monoclonal anti-cAMP-Eu3+Cryptate (donor). A FRET signal (Fluorescence Resonance Energy Transfer) is obtained only if the labeled anti-cAMP antibody binds the d2 labelled cAMP, thus the specific signal (i.e. energy transfer) is inversely proportional to the concentration of cAMP in the standard or sample.
The SF295 cells (NCI/No. 0503170) are detached from culture dishes with a cell dissociation buffer (Invitrogen, 13151-014), and collected in growing medium (GM: RPM11640 (Invitrogen 21875)/10% FCS, 1% Penicilin/streptomycin). Cells are counted washed and resuspended in assay buffer (AB; HBSS, 20 mM HEPES, 0.2% BSA; 2 mM IBMX). 4,000 cells in 5 μl of AB are seeded per well of a small volume 384 well plate (black with flat bottom, Greiner 784076).
PGE2 (Cayman 14010, stock solution: 75 μM in DMSO) is used as agonist at 75 nM final concentration, corresponding to EC80.
Two point five microliters of diluted compounds are transferred into the assay plate. Plate is pre-incubated 45 minutes at room temperature. Subsequently, 2.5 microliters of PGE2 (final conc. 75 nM) are transferred into the assay plate. Plate is incubated 30 minutes at room temperature. Five μl of each donor (anti-cAMP cryptate) and acceptor (cAMP-d2) are added and the plate is incubated another hour at room temperature in the dark and then read using a BMG LABTECH PHERAstar reader (Excitation: 337 nm, Emission: 620 and 665 nm).
The obtained Delta F (fluorescence) values (665 nm/620 nM) are converted into % cAMP values using the measurements of the cAMP calibrator provided in the kit. For each compound concentration the percentage of cAMP compared to DMSO control value as average±STDEV (each concentration is measured in duplicate) is calculated.
IC50 values and curves are generated with XLfit software (IDBS) using Dose-Response One Site model 203. When compounds were measured multiple times, mean values are given.

Sequence of EP4 (P35408 whole entry): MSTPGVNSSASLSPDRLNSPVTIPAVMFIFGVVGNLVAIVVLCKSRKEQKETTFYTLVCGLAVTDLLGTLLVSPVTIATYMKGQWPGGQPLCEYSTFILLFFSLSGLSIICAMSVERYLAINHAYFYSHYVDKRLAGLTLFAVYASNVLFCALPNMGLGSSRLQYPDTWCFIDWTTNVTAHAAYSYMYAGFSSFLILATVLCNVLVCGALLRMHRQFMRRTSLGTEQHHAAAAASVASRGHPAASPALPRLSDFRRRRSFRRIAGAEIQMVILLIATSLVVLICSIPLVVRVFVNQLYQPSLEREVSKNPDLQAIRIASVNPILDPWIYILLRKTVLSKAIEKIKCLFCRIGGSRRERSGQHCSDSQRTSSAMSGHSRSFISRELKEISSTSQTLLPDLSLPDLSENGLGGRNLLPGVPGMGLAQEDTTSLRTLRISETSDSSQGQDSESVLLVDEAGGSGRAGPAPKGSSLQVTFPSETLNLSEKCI

SMILES	IC50 [1] [nM]	IC50 [2] [nM]
COc1cc(F)cc2c1cc(C)n2CCNc1cc(-c2ccc(C(=O)CC#N)cc2)ncn1 [compound 709, 3-(4-{6-[2-(6-Fluoro-4-methoxy-2-methyl-indol-1-yl)-ethylamino]-pyrimidin-4-yl}-phenyl)-3-oxo-propionitrile]	535	14
CCOc1cc(-c2cc(NCCn3c(C)cc4c(OC)cc(F)cc43)ncn2)cc(F)c1-c1nnn[nH]1 [compound 658]	287	24
CCCc1cc(-c2cc(NCCn3c(C)cc4c(OC)cc(F)cc43)ncn2)cc(F)c1C(=O)O [compound 521]	64	17
Cc1cc(F)cc2c1cc(C)n2CCNc1cc(-c2cc(Cl)c(C(=O)O)c(OCC(C)C)c2)ncn1 [compound 693]	234	20
COc1ccc(F)c2c1cc(C)n2CCNc1cc(-c2ccc(-c3nnc(C)o3)cc2)ncn1 [compound 574]	208	33
COc1cccc2c1cc(C)n2CCNc1cc(-c2ccc(C(=O)O)c(NCC(F)(F)F)c2)ncn1 [compound 568, 4-{6-[2-(4-Methoxy-2-methyl-indol-1-yl)-ethylamino]-pyrimidin-4-yl}-2-(2,2,2-trifluoro-ethylamino)-benzoic acid]	118	1
CCNc1cc(-c2cc(NCCn3c(C)cc4ccccc43)ncn2)ccc1-c1nnn[nH]1 [compound 671, {6-[3-Ethylamino-4-(1H-tetrazol-5-yl)-phenyl]-pyrimidin-4-yl}-[2-(2-methyl-indol-1-yl)-ethyl]-amine]	136	2
Cc1nc2cc(-c3cc(NCCn4c(C)cc5c(C)ccc(F)c54)ncn3)ccc2o1 [compound 686]	842	239
CCCOc1cc(-c2cc(NCCn3c(C)cc4c(OC)cccc43)ncn2)cc(Cl)c1C(=O)O [compound 497]	168	11
Cc1cc2c(Cl)ccc(Cl)c2n1CCNc1cc(-c2ccc(C(=O)O)c(SC3CCC3)c2)ncn1 [compound 453, 2-Cyclobutylsulfanyl-4-{6-[2-(4,7-dichloro-2-methyl-indol-1-yl)-ethylamino]-pyrimidin-4-yl}-benzoic acid]	904	31
COc1cc(-c2ccc(-c3cc(NCCn4c(C)cc5c(OC)cc(F)cc54)ncn3)cc2)ncn1 [Example 749, [2-(6-Fluoro-4-methoxy-2-methyl-indol-1-yl)-ethyl]-{6-[4-(6-methoxy-pyrimidin-4-yl)-phenyl]-pyrimidin-4-yl}-amine]	425	81
CNc1nnc(-c2ccc(-c3cc(NCCn4c(C)cc5c(C)cc(F)cc54)ncn3)cc2)s1 [compound 592]	39	13
Cc1cc(F)cc2c1cc(C)n2CCNc1cc(-c2ccc(-c3cncn3C)cc2)ncn1 [compound 547]	232	63
COc1c(F)cc(Cl)c2c1cc(C)n2CCNc1cc(-c2ccc3c(=O)[nH][nH]c3c2)ncn1 [Example 782, 6-{6-[2-(7-Chloro-5-fluoro-4-methoxy-2-methyl-indol-1-yl)-ethylamino]-pyrimidin-4-yl}-1,2-dihydro-indazol-3-one]	91	39
CCCOc1cc(-c2cc(NCCn3c(C)cc4c(OC)ccc(F)c43)ncn2)cc(F)c1C(=O)O [compound 610]	139	22
COc1cc(F)cc2c1cc(C)n2CCNc1cc(-c2ccc(-c3c[nH]c(C)n3)cc2)ncn1 [compound 581]	33	5
COc1cc(F)cc2c1cc(C)n2CCNc1cc(-c2ccc(-c3cc(N(C)C)ncn3)cc2)ncn1 [Example 763, 6-(4-(6-((2-(6-Fluoro-4-methoxy-2-methyl-1H-indol-1-yl)ethyl)amino)pyrimidin-4-yl)phenyl)-N,N-dimethylpyrimidin-4-amine]	139	25
